We go through eleven molecules from ChEMBL document CHEMBL6177982, “Structural Optimization of Pyrazole Compounds as Hsp90 Regulators with Enhanced Antitumor Activity” (J Med Chem, 2025).

One data set deals with CT26. The experiment in a line: Antiproliferative activity against mouse CT26 cells assessed as inhibition of cell proliferation incubated for 72 hrs by MTT assay. In kind it is functional, cell-based. As to conditions: CT26, 72 h. In general terms: Formazan colour is commonly taken as a measure of viable cells.
Data set [1] relates to HCT-116. The experiment in a line: Antiproliferative activity against human HCT-116 cells assessed as inhibition of cell proliferation incubated for 72 hrs by MTT assay. In kind it is functional, cell-based. The following applies: HCT-116, 72 h.
The target in data set [2] is Heat shock protein HSP 90-beta/Hsp90 co-chaperone Cdc37 (Homo sapiens) (UniProt P08238+Q16543). The experiment in a line: Inhibition of His-tagged HSP90(unknown origin)/GST-tagged CDC37 (unknown origin) protein-protein interaction at 100 uM preincubated with HSP90 for 1 hrs followed by CDC37 addition and measured after 1 hrs by HTRF assay relative to control. In kind it is protein-complex assay.

Data set [3] in a line: Permeability of compound at pH 7.4 incubated for 4 hrs by PAMPA based UV analysis. In kind it is ADME. The following applies: read-out: permeability.
Another data set concerns HT-29. The experiment in a line: Antiproliferative activity against human HT-29 cells assessed as inhibition of cell proliferation incubated for 72 hrs by MTT assay. The following applies: HT-29, 72 h. In kind it is functional, cell-based.
In the next data set the test system is MCF7. The experiment in a line: Antiproliferative activity against human MCF7 cells assessed as inhibition of cell proliferation incubated for 72 hrs by MTT assay. In kind it is functional, cell-based. As to conditions: MCF7, 72 h.
Data set [4] has as its system HCT-116. The experiment in a line: Antiproliferative activity against CDC37 knockout human HCT-116 cells assessed as inhibition of cell proliferation incubated for 72 hrs by MTT assay. In kind it is functional, cell-based. As to conditions: HCT-116, 72 h.
Another data set has as its system SK-BR-3. The experiment in a line: Antiproliferative activity against human SK-BR-3 cells assessed as inhibition of cell proliferation incubated for 72 hrs by MTT assay. In kind it is functional, cell-based. As to conditions: SK-BR-3, 72 h.
The test system of a further data set is HT-1080. Briefly: Antiproliferative activity against human HT-1080 cells assessed as inhibition of cell proliferation incubated for 72 hrs by MTT assay. In kind it is functional, cell-based. The following applies: HT-1080, 72 h.
Data set [5] is described as follows: Selectivity ratio of IC50 for antiproliferative activity against CDC37 knockout human HCT-116 cells to IC50 for antiproliferative activity against human HCT-116 cells. In kind it is functional.
Data set [6] addresses Heat shock protein HSP90 (Homo sapiens) (UniProt P07900+P08238). Briefly: Induction of thermal stabilization of HSP90 in human HCT-116 cells at 10 uM at 53 to 55 degreeC by CETSA based Western blot analysis. In kind it is cell-based.

Activity calls are given as the source filed them. The calls are words filed in the database; no cut-off is given here. Where only a bound is given, the exact number is not on record here.

In the case of `Cc1ccc(-c2nn(-c3ccccc3)cc2/C=C/C(=O)N2CCCCC2C(N)=O)cc1C` (centres undefined), the IC50 (in general, the concentration at which inhibition is half-maximal) was found to be 9.24 µM in the data set with CT26; 7.83 µM in the data set with HCT-116 [1]; 10.2 µM in the data set on HT-29; 12.2 µM in the data set with MCF7; 25.1 µM in the data set on HCT-116 [4]; 13.9 µM in the data set on SK-BR-3. Besides, in the data set on HT-1080, the IC50 stood at 14.8 µM. In data set [2], the inhibition (in general, how much of the control response was suppressed) amounted to 62.9%. In data set [3], the Papp at 4 h stood at 23 ×10⁻⁶ cm/s. Also, the “Ratio IC50” value in data set [5] was determined as 3.2.
For `NC(=O)C1CCCCN1C(=O)/C=C/c1cn(-c2ccccc2)nc1-c1ccccc1` (centres undefined), the concentration for half-maximal inhibition (IC50) in the data set with HCT-116 [1] worked out at 10 µM; in the data set on HCT-116 [4] it was 28.8 µM. Also, in [2], the inhibition is 46.4%. For the same molecule, the “Ratio IC50” value in data set [5] came to 2.8.
The matching figures for `Cc1cc(-c2nn(-c3ccccc3)cc2/C=C/C(=O)N2CCCCC2C(N)=O)ccc1F` (centres undefined): 12.6 µM, over 50 µM, 45.7% and under 5.
The matching figures for `NC(=O)C1CCCCN1C(=O)/C=C/c1cn(-c2ccccc2)nc1-c1cccc(Br)c1` (centres undefined): 12.2 µM, 44.5 µM, 50.2% and 3.6.
The matching figures for `O=C(/C=C/c1cn(-c2ccccc2)nc1-c1cccnc1)N1CCCCC1`: 8.11 µM, over 50 µM, 68.8% and over 5.
On to `NC(=O)C1CCCCN1C(=O)/C=C/c1cn(-c2ccccc2)nc1-c1ccco1` (centres undefined), for which the IC50 was 9.79 µM in the data set with HCT-116 [1] and over 50 µM in the data set on HCT-116 [4]. In data set [2], this molecule had an inhibition of 55.4%. Also, the “Ratio IC50” value in [5] is over 5.
Turning to `O=S(=O)(CCc1cn(-c2ccccc2)nc1-c1cccnc1)c1ccccc1`, the IC50 in the data set with HCT-116 [1] and with HCT-116 [4] was over 50 µM throughout. Moreover, the result in data set [6] was inactive.
For the molecule `CCCN(CCC)C(=O)/C=C/c1cn(-c2ccccc2)nc1-c1cccnc1`, the half-inhibitory concentration (IC50) with HCT-116 [1] is 9.04 µM; in the data set on HCT-116 [4], 46.3 µM. In data set [2], this molecule yielded an inhibition of 63.6%. Besides, the “Ratio IC50” value in data set [5] turned out to be 5.1.
The matching figures for `CN(C)C(=O)/C=C/c1cn(-c2ccccc2)nc1-c1cccnc1`: 12.4 µM, 46 µM, 58.9% and 3.7.
For the molecule `Cc1cccc(-c2nn(-c3ccccc3)cc2/C=C/C(=O)N2CCCCC2C(N)=O)c1` (centres undefined), the IC50 with HCT-116 [1] was 8.12 µM; in the data set on HCT-116 [4], 35 µM. Besides, the inhibition in [2] was found to be 52.9%. For the same molecule, the “Ratio IC50” value in data set [5] was 4.3.
Turning to `NC(=O)C1CCCCN1C(=O)/C=C/c1cn(-c2ccccc2)nc1-c1ccncc1` (centres undefined), the results for the IC50 with HCT-116 [1] and with HCT-116 [4] were 8.11 µM and over 100 µM, respectively. Further, in data set [2], the inhibition was 70.4%. In addition, the “Ratio IC50” value in data set [5] was over 10.
